The values below come from publication PMC9812923 (2022).

Assay [1] concerns GA2 (DNA, G4) GAGGGAGGGAAAAGGGGAGGGA
The assay can be described thus: UV-Vis melting, 295 nm. The settings on record: 100 mM K+; 10 mM lithium cacodylate pH 7.2; 2 equivalents NMM, ~4 μM DNA.

Assay [2] relates to GA1 (DNA, G4) GAGGGAGGGAGGGAAAAGGGGA
The assay can be described thus: UV-Vis melting, 295 nm. As to conditions: 100 mM K+; 10 mM lithium cacodylate pH 7.2; 2 equivalents NMM, ~4 μM DNA.

In assay [3] the test system is GA3 (DNA, G4) AGGGAAAAGGGGAGGGAAAAGGGGA
The assay can be described thus: UV-Vis melting, 295 nm. The settings on record: 100 mM K+; 10 mM lithium cacodylate pH 7.2; 2 equivalents NMM, ~4 μM DNA.

Assay [4] relates to GA2 (DNA, G4) GAGGGAGGGAAAAGGGGAGGGA
The assay can be described thus: UV-Vis titration, SVD. The settings on record: 5 mM K+, 95 mM Li+; 10 mM lithium cacodylate pH 7.2, 20 °C; 1:1 model.

What is called ΔTm is the change in melting temperature against a reference sample. For the compound `CCc1c(C)c2cc3nc(cc4nc(cc5c(CC)c(C)c(cc1[nH]2)n5C)C(C)=C4CCC(=O)O)C(CCC(=O)O)=C3C`, the ΔTm in assay [1] is 13.1 ± 0.8 °C; in assay [2] it was 14.6 ± 1.1 °C; in assay [3] it was 7.0 ± 1.7 °C. In assay [4], this compound had a Ka of 1.4 ± 0.1 µM⁻¹.
